Like-named read-outs stand apart in the source and are kept apart here.
Experiments:
[1] = molecular target: semi-purified γ-secretase; experiment: In vitro APP processing (C100Flag substrate, semi-purified γ-secretase, MESO Scale ELISA), rat brain membranes; type: biochemical; details: in vitro assay
Description: (§1) In Vitro APP Processing (Assay Quatitates Aβ Analytes Generated from a Recombinant APPC100Flag Substrate Incubated with Semi-Purified γ-Secretase)
(§2) The effect of compounds on the abundance of Aβ40 and Aβ42 peptides generated from exogenous C100Flag substrate by semi-purified γ-secretase was determined by MESO Scale ELISA. Generation of signal in this MESO Scale assay requires an anti-amyloid monoclonal antibody (clone 408) conjugated with streptavidin to bind to a biotin-coated plate. Specific [Ru(bpy)3]2+-labeled monoclonal antibodies for either Aβ40 (G210) or Aβ42 (12F4) subsequently generate an electrochemiluminescence signal upon electrochemical stimulation. The assay was accomplished by incubating compound, C100Flag substrate and CHAPSO-solubilized P2 membranes from HeLa cells or brains of mouse, rat, or dog. The reaction was then transferred to two different biotinylated microplates for detection of either Aβ40 or Aβ42.

[2] = tested on: T1, gamma secretase-dependent cleavage of the Notch protein, HeLa cells; experiment: Notch processing, split-luciferase assay in HeLa cells; type: cell-based; details: cell based assay, HeLa cells, NotchΔE split-luciferase
T1 construct: HeLa Notch; other: cell based assay, HeLa cells, NotchΔE split-luciferase
Description: (§3) Notch Processing: (Assay Quantitates Notch Intracellular Domain Release in Cell Lines):
(§4) A “split-luciferase” assay is used to measure inhibition of gamma secretase-dependent cleavage of the Notch protein. In this assay, HeLa cells were made to express a Notch protein lacking its extracellular domain (NotchΔE) fused to an N-terminal fragment of luciferase. The same cells also expressed a C-terminal fragment of luciferase fused to the immunoglobulin J kappa recombination signal sequence binding protein (RBP). Upon NotchΔE cleavage by gamma secretase, a Notch intracellular domain (NICD)-N terminal luciferase protein is generated which translocates to the nucleus and binds the RBP-C terminal luciferase fusion, bringing two independently nonfunctional halves of luciferase together to form a functional luciferase enzyme. The activity of luciferase in these cells is directly proportional to the amount of gamma secretase-cleaved Notch. Luciferase activity is determined by the standard techniques of luciferin addition to lysed cells and measurement of total luminescence.

[3] = tested on: gamma secretase-dependent cleavage of the Notch protein, HeLa cells; experiment: as above; type: cell-based; details: ratio HeLa Notch to SY5Y Aβ40
Description: as §3, §4

[4] = molecular target: semi-purified γ-secretase; experiment: In vitro APP processing (C100Flag substrate, semi-purified γ-secretase, MESO Scale ELISA), dog brain membranes; type: biochemical; details: in vitro assay
Description: as §1, §2

[5] = Example A: PK profile in Rhesus monkeys, 30 mg/kg PO single dose; type: in vivo; details: rhesus monkey, plasma
Description: (§5) Peak lowering of ˜46% was observed 24 hrs after each dose. […] Terminal phase pharmacokinetic characteristics of Example 1 in Rhesus monkey provide continuous inhibition over the course of one week achieving both an average as well as minimum reduction of CSF Aβ40 of >25%.

[6] = Pharmacokinetics in Rhesus monkeys; type: in vivo; details: for AUC (Norm)(0-x) / half-life / clearance: 0.25 mg/kg; for half-life / bioavailability / clearance: rhesus monkey, plasma; for bioavailability: 0.25 mg/kg IV or PO; for clearance: intravenous
Description: (§6) Pharmacokinetic parameters were determined in Sprague Dawley rats, Beagle dogs and Rhesus monkeys by dosing the compounds intravenously (IV) or orally (PO). A dose of 0.25 mg/kg was administered either IV or PO to each subject with a dosing solution of 0.25 mg/ml in a 30:70 v/v mixture of PEG400:40% Captisol®. Plasma samples were collected at 5 min. (IV only), 15 min., 30 min., 1 h, 2 h, 4 h, 6 h, 8 h, 24 h, 48 h, 72 h, 96 h, 120 h, 144 h, and 168 h. Samples were analyzed by LC-MS/MS (API5000™) to determine the concentration in plasma. Briefly, 50 μL plasma was precipitated with 200 μL acetonitrile containing an appropriate internal standard. Samples were filtered, 500 μL of water was added to each sample and 10 μL of this was injected on a C18 column (2.0 mm×30 mm, 3 μm particle size) and eluted using a gradient LC method with water containing 0.1% formic acid as the aqueous mobile phase, and acetonitrile containing 0.1% formic acid as the organic phase. Electrospray ionization with multiple reaction monitoring was used for MS/MS detection. Plasma concentration of the compounds was determined using a standard curve that was prepared similar to the samples in the respective matrix. Non-compartmental analysis was performed using Watson 7.2 to generate the PK parameters.

CSF Aβ40 and Aβ42 = experiment: Example B: CSF Aβ40 and Aβ42 levels and tolerability in rhesus monkeys, once-weekly oral 30 mpk; type: in vivo; details: oral once-weekly 30 mpk
Description: Example 1 was administered orally to rhesus monkeys once-weekly at a dose of 30 mpk and levels of Aβ40 and Aβ42 in the cerebrospinal fluid (CSF) were monitored.

[7] = Pharmacokinetics in Beagle dogs; type: in vivo; details: Dog; for clearance / half-life / bioavailability: Beagle, plasma; for clearance: intravenous; for clearance / half-life / AUC (Norm)(0-x): 0.25 mg/kg; for bioavailability: 0.25 mg/kg IV or PO
Description: as §6

[8] = Pharmacokinetics in Sprague Dawley rats; type: in vivo; details: Rat; for AUC (Norm)(0-x) / clearance / half-life: 0.25 mg/kg; for clearance / half-life / bioavailability: Sprague Dawley, plasma; for clearance: intravenous; for bioavailability: 0.25 mg/kg IV or PO
Description: as §6

[9] = tested on: γ-secretase (APP processing), SH-SY5Y cells expressing amyloid β protein (SP4CT cells); experiment: APP processing, secreted Aβ40 and Aβ42 from SH-SY5Y (SP4CT) cells, AlphaLisa; details: cell based assay
Description: APP Processing (Assay Quantitates Secreted Aβ Analytes from Cell Lines):
The effect of compounds on the abundance of Aβ40 and Aβ42 peptides generated from SH-SY5Y cells expressing amyloid β protein (SP4CT cells) was determined by an AlphaLisa™ assay. Analogous to an ELISA assay, generation of signal in this AlphaLisa™ assay requires “donor” and “acceptor” beads to be brought in close proximity by specific antibody recognition of either Aβ40 or Aβ42 peptides. The assay was accomplished by removing media from compound-treated SP4CT cells to two different microplates, followed by the addition of donor beads conjugated with streptavidin binding a biotinylated anti-amyloid β monocolonal antibody (clone 408). Acceptor beads directly conjugated with anti-Aβ40 monoclonal antibody (G210) were added to one microplate and anti-Aβ42 monoclonal antibody (12F4) acceptor beads were added to the other. Abundance of Aβ40 and Aβ42 was directly proportional to the luminescent signal generated following excitation of donor beads by laser light.

[10] = molecular target: semi-purified γ-secretase; experiment: In vitro APP processing (C100Flag substrate, semi-purified γ-secretase, MESO Scale ELISA), mouse brain membranes; type: biochemical; details: in vitro assay
Description: as §1, §2

CSF Aβ40 = experiment: Example A: CSF Aβ40 reduction and tolerability in Rhesus monkeys, 30 mg/kg PO, one week; type: in vivo
Description: as §5

[11] = Aβ40, read-out: Tissue autonomous Aβ40, Rat
[12] = Aβ40, read-out: Tissue autonomous Aβ40, Dog
[13] = Aβ40, read-out: Tissue autonomous Aβ40, Mouse

Compound O=S(=O)(N[C@H]1CC[C@@](c2cc(F)ccc2C(F)(F)F)(S(=O)(=O)c2ccc(C(F)(F)F)cc2)CC1)C(F)(F)F [Example 1, 1,1,1-trifluoro-N-(4-[5-fluoro-2-(trifluoromethyl)phenyl]-4-{[4-(trifluoromethyl)phenyl]sulfonyl}cyclohexyl)methanesulfonamide] has an IC50 [1, 11] of 1.4 nM, an IC50 [2] of 518 nM and a Notch/Aβ40 [3] of 370. For the same compound, the IC50 [4, 12] was 1.5 nM, the AUC(0-t) ([5]; read-out: AUC (0-24)) was 138 µM·h and the half-life ([5]; read-out: plasma t ½) was over 168 h. For the same compound, the “AUC (Norm)(0-x)” value [6] was 385 µM·kg·h/mg, the half-life [6] was 228 h and the bioavailability [6] was 84%. For the same compound, the clearance [6] was 0.07 mL/min/kg, the GI toxicity (CSF Aβ40 and Aβ42; over a 3 week period) was “no evidence of GI toxicity” and the “average reduction in CSF Aβ40 levels relative to vehicle-treated controls” value (CSF Aβ40 and Aβ42; over a 3 week period) was “approximately 40%”. For the same compound, the “average reduction in CSF Aβ42 levels relative to vehicle-treated controls” value (CSF Aβ40 and Aβ42; over a 3 week period) was “approximately 40%”, the “side-effects leading to study termination” value (CSF Aβ40 and Aβ42; study terminated after 3 weeks) was “respiratory side-effects unconnected with Notch signaling” and the clearance [7] was 0.234 mL/min/kg. For the same compound, the half-life [7] was 713 h, the bioavailability [7] was 84% and the “AUC (Norm)(0-x)” value [7] was 99 µM·kg·h/mg. For the same compound, the “AUC (Norm)(0-x)” value [8] was 8.7 µM·kg·h/mg, the clearance [8] was 3.4 mL/min/kg and the half-life [8] was 126 h. For the same compound, the bioavailability [8] was 64%, the IC50 ([9]; Aβ40, read-out: SY5Y Aβ40) was 1.4 ± 0.9 nM and the IC50 [10, 13] was 2.4 nM. The “minimum inhibition (CSF Aβ40)” value (CSF Aβ40; 24 hrs (day 1) to 144 hrs (day 6)) was over 25%, the “Peak lowering of CSF Aβ40” value (CSF Aβ40; 24 hrs after each dose) was about 46% and the “average daily CSF Aβ40 reduction relative to baseline” value (CSF Aβ40; over a one week period (168 hrs; 7 days)) was about 35%. For the same compound, the “tolerability (unformed stool)” value (CSF Aβ40; over the course of the study) was “no unformed stool or other tolerability issues”.
In the case of O=S(=O)(N[C@H]1CC[C@@](c2cc(F)ccc2F)(S(=O)(=O)c2ccc(C(F)(F)F)cc2)CC1)C(F)(F)F [Example 62 from U.S. Pat. No. 6,890,956], the IC50 [2] is reported as 154 nM, the Notch/Aβ40 [3] is reported as 156 and the clearance [7] is reported as 0.383 mL/min/kg. The half-life [7] was 254 h, the bioavailability [7] was 55% and the “AUC (Norm)(0-x)” value [7] was 49.5 µM·kg·h/mg. The “AUC (Norm)(0-x)” value [8] was 6.0 µM·kg·h/mg, the clearance [8] was 5.9 mL/min/kg and the half-life [8] was 101 h. It also gave a bioavailability [8] of 116%, an IC50 ([9]; Aβ40, read-out: SY5Y Aβ40) of 0.99 nM and an IC50 ([9]; Aβ42, read-out: SY5Y Aβ42) of 0.99 nM.
Compound O=S(=O)(N[C@H]1CC[C@@](c2cc(F)ccc2F)(S(=O)(=O)c2ccc(Cl)cc2)CC1)C(F)(F)F [MRK-560] has an IC50 [1, 11] of 1 nM, an IC50 ([1]; Aβ42, read-out: Tissue autonomous Aβ42, Rat) of 0.4 nM and an IC50 [2] of 112 nM. It also gave a Notch/Aβ40 [3] of 155, an IC50 [4, 12] of 5.2 nM and an IC50 ([4]; Aβ42, read-out: Tissue autonomous Aβ42, Dog) of 1.3 nM. For the same compound, the “AUC (Norm)(0-x)” value [6] was 9.4 µM·kg·h/mg, the half-life [6] was 12 h and the bioavailability [6] was 23%. The clearance [6] was 0.8 mL/min/kg, the clearance [7] was 4.7 mL/min/kg and the half-life [7] was 18 h. The bioavailability [7] was 14%, the “AUC (Norm)(0-x)” value [7] was 1.1 µM·kg·h/mg and the clearance [8] was 2.2 mL/min/kg. The half-life [8] was 26 h, the bioavailability [8] was 67% and the IC50 ([9]; Aβ40, read-out: SY5Y Aβ40) was 0.72 nM. For the same compound, the IC50 ([9]; Aβ42, read-out: SY5Y Aβ42) was 0.51 nM, the IC50 [10, 13] was 0.8 nM and the IC50 ([10]; Aβ42, read-out: Tissue autonomous Aβ42, Mouse) was 0.4 nM.
